Test results as given in ChEMBL document CHEMBL1201862, “PubChem BioAssay data set” (2004).
The source made the active and inactive calls.

Legend:
[1] = AlphaScreen signal interference compounds, dose response, artefact control for ARNT-TACC3 interaction inhibitor project, biochemical, luminescence, cherry-pick (AID 651705); format: functional;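 also: AlphaScreen bead proximity signal that flags compounds interfering with the detection technology; potency reflects signal decrease which marks the compound as an assay artifact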
[2] = target: T1, Sentrin-specific protease 1 (Homo sapiens, UniProt Q9P0U3); assay: potency of human SENP1 inhibitors, dose response, biochemical, kinetic FRET (AID 651697); format: functional; settings: read-out: IC50_Mean
T1 sequence (Q9P0U3 whole entry, the tested form may be a part): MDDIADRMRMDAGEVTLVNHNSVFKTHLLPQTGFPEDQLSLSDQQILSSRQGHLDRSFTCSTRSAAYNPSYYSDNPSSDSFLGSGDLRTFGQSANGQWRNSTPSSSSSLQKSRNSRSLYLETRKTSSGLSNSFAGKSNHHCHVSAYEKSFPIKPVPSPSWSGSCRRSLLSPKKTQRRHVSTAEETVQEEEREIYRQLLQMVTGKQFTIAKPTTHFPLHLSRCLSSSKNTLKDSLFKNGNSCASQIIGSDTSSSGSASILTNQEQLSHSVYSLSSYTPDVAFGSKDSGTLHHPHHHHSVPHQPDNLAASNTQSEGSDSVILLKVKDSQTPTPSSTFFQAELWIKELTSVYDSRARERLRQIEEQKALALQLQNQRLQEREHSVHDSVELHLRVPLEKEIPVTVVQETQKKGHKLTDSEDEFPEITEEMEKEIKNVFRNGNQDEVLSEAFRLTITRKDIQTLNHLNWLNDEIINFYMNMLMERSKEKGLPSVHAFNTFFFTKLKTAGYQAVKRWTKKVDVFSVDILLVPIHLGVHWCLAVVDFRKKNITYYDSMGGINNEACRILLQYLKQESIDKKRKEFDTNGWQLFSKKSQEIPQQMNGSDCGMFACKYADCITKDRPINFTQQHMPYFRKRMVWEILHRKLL

[3] = target: T1, Sentrin-specific protease 1; assay: Dose response confirmation of small molecule inhibitors of the catalytic domain of the SUMO protease, SENP1 in a FRET assay.; format: functional; settings: read-out: IC50_Mean
[4] = target: T2, High affinity choline transporter 1 (Homo sapiens, UniProt Q9GZV3); assay: CHT inhibitors, dose response, cell-based, 10-point CRC, membrane potential dye (AID 588401); format: functional;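 also: membrane potential dye fluorescence of choline-evoked depolarization via CHT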
T2 sequence (Q9GZV3 whole entry): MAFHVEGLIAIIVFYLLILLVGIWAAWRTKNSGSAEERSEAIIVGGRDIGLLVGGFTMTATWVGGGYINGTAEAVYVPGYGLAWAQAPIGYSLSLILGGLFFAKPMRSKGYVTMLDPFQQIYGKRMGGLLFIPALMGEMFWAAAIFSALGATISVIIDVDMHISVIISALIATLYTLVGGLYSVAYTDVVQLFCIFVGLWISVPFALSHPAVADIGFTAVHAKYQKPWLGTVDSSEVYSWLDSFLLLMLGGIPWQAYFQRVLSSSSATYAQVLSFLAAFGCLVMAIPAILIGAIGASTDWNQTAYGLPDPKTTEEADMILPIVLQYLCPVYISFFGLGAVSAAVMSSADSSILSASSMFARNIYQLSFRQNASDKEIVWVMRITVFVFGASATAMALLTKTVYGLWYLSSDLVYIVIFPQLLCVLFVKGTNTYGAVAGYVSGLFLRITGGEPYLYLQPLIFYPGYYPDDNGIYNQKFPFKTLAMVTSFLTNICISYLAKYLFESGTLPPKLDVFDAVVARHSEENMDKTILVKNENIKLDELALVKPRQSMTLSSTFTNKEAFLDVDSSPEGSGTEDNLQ

[5] = target: T2, High affinity choline transporter 1; assay: CHT inhibitors, dose response, cell-based, 5-point CRC, membrane potential dye (AID 504840); format: functional
[6] = target: Interleukin-8 (Homo sapiens, UniProt P10145); assay: Dose Response confirmation of uHTS small molecule hits for cystic fibrosis induced NFkb Inhibitors in a PAF-induced IL8 counterscreen.; format: functional; settings: read-out: IC50_Mean
[7] = Luminescence Cell-Based Dose Retest to Confirm Inhibitors of Cancer Stem Cells. [Related pubchem assays (depositor defined):AID2717, AID2721]; format: functional; settings: Homo sapiens
[8] = system: A-375; assay: MITF: Counter assay: A375 proliferation Measured in Cell-Based System Using Plate Reader - 2084-03_Inhibitor_Dose_DryPowder_Activity. [Related pubchem assays (depositor defined):AID488944]; format: functional; settings: Homo sapiens
[9] = target: Type-1 angiotensin II receptor (Homo sapiens, UniProt P30556); assay: AT1 receptor antagonists, dose response, selectivity assay for APJ receptor antagonist project, cell-based, uHTS hits (AID 463214); format: functional;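 also: antagonist potency against angiotensin II stimulated AT1 response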
Chain of Type-1 angiotensin II receptor (P30556 whole entry): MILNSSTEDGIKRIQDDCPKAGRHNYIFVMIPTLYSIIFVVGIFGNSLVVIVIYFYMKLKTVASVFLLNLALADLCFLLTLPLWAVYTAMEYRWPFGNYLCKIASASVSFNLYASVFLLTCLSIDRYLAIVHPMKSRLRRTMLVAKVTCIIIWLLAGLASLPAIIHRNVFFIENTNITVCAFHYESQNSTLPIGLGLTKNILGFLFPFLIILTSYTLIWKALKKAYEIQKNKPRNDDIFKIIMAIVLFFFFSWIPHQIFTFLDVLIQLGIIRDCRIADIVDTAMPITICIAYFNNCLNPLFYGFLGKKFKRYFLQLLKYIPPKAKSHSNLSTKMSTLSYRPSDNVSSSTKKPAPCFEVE

[10] = target: Beta Lactamase (Pseudomonas aeruginosa, UniProt Q932Y6); assay: beta-lactamase reporter inhibitor potency, dose response, artefact control for TLR9-MyD88 binding inhibitor project, BLA reporter cells, FRET fluorescence (AID 588341); format: cell-based;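 also: cell based assay in CHO-K1 cells stably expressing beta-lactamase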
Chain of Beta Lactamase (Q932Y6 whole entry): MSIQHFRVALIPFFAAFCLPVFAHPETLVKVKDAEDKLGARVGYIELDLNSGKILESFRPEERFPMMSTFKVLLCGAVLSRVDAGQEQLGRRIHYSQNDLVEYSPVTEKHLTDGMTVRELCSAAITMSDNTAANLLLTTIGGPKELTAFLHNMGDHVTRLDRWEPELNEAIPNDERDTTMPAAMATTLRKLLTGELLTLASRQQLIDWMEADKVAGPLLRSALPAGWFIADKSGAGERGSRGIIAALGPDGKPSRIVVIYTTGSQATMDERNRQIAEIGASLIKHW

[11] = system: A-375; assay: A375 melanoma cell viability reduction, dose response, counter-screen for MITF modulator project, cherry-pick samples, set 2 (AID 540335); format: functional, cell-based; settings: Homo sapiens
[12] = target: T3, Fatty acid synthase (Homo sapiens, UniProt P49327); assay: FAS thioesterase domain inhibitors, dose response, biochemical, kinetic fluorescence intensity (AID 624326); format: functional;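 also: rate of fluorescence rise from hydrolysis of a fluorogenic O-methyl fluorescein ester substrate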
T3 sequence (P49327 whole entry, the tested form may be a part): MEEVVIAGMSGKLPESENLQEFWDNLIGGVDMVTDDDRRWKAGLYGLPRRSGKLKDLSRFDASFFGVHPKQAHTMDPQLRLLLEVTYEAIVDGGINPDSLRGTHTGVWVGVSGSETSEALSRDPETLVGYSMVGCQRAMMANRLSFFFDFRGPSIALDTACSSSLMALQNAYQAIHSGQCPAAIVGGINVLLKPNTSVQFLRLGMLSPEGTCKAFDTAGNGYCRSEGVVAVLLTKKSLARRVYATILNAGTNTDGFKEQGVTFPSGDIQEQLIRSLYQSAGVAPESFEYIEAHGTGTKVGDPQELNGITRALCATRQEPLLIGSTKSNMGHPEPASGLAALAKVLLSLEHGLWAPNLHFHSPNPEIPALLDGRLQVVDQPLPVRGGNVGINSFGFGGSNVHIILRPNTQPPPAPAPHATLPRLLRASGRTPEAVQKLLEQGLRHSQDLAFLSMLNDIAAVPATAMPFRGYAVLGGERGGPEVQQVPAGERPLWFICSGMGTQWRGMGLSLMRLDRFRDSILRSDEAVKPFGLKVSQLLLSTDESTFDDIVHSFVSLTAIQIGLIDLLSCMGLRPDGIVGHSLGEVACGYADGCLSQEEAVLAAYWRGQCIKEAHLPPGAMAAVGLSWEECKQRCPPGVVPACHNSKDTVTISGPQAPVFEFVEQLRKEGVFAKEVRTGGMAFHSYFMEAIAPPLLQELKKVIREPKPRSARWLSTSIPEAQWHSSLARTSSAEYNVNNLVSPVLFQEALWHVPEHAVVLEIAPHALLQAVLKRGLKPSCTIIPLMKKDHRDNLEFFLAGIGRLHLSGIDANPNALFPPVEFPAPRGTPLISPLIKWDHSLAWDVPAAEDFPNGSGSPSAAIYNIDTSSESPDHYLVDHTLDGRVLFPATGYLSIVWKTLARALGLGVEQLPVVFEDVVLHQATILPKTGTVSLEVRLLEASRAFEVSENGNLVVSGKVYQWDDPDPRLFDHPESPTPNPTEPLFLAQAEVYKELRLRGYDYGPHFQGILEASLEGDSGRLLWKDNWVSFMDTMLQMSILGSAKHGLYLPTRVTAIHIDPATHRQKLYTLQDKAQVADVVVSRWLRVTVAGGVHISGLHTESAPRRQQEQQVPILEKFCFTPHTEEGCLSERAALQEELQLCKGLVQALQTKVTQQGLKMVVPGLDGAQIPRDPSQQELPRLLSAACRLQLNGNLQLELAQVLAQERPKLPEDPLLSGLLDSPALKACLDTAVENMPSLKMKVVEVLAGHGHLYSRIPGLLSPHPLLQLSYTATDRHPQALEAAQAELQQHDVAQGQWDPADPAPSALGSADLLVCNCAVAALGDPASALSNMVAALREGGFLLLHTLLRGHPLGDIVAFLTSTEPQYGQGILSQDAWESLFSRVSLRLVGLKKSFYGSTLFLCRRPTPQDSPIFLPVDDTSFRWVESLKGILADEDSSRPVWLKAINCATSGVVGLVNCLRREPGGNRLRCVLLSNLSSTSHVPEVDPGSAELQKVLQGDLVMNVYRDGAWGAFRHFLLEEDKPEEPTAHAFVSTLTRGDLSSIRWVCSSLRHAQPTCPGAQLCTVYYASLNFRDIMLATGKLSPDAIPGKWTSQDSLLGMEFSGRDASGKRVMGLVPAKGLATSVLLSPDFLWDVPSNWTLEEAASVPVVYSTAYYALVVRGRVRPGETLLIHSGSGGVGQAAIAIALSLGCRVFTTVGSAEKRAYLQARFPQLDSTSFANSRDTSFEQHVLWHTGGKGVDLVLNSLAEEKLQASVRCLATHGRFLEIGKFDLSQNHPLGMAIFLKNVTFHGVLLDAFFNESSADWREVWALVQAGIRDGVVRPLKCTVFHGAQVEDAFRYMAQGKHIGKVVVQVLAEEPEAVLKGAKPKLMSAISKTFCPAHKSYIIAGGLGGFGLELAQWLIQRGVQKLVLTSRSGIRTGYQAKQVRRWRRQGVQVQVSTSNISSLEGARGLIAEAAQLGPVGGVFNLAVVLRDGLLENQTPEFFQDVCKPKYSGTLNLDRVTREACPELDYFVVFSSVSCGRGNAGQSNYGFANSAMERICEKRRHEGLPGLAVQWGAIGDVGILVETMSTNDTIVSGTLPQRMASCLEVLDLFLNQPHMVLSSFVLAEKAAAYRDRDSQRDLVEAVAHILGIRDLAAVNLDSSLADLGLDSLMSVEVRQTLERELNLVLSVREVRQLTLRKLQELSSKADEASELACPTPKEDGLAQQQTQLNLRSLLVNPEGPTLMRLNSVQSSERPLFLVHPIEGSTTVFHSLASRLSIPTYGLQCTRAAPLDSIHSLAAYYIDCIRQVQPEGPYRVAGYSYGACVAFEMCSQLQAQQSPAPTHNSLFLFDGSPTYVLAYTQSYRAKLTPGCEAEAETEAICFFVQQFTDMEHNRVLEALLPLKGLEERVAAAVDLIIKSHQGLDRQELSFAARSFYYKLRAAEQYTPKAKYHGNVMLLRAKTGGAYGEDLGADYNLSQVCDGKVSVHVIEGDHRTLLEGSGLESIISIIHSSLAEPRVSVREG

[13] = target: Paired box protein Pax-8 (Homo sapiens, UniProt Q06710); assay: inhibitors of PAX8-driven TPO luciferase reporter, dose response, RMG-I cells, cherry-pick (AID 687027); format: functional, cell-based;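 also: luciferase reporter driven by Pax8 target thyroperoxidase promoter measured by SteadyGlo luminescence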
[14] = HepG2 cell cytotoxicity, dose response, cytotoxicity control for Shn3 inhibitor project, CellTiter-Glo, cherry-picked (AID 624134); format: functional, cell-based
[15] = target: Beta-galactosidase (Escherichia coli, UniProt Q8VNN2); assay: PubChem AID 485352; format: functional
[16] = system: CHO; assay: cytotoxicity in TLR9-MyD88 CHO cells, dose response, cytotoxicity control for TLR9-MyD88 binding inhibitor project, cell-based, luminescence (AID 588339); format: functional, hamster; settings: Cricetulus griseus;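 also: CHO cells stably coexpressing TLR9 and MyD88 fusions from primary screen; compound exposure lasted 48 hours before viability readout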
[17] = target: T3, Fatty acid synthase; assay: FAS thioesterase domain inhibitors, dose response, biochemical, endpoint fluorescence intensity, uHTS hits (AID 624327); format: functional;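 also: fluorescence from hydrolysis of an O-methyl fluorescein acyl ester substrate by the enzyme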
[18] = control 3'UTR Renilla luciferase suppression, dose response, counter-screen for Shn3 inhibitor project, cell-based, Clone20-Shn3RL, cherry-picked (AID 624133); format: functional
[19] = target: Heat shock protein HSP 90-alpha (Homo sapiens, UniProt P07900); format: functional, organism-based
[20] = target: ATP-binding cassette sub-family B member 6 (Homo sapiens, UniProt Q9NP58); assay: ABCB6 transporter inhibitors, dose response, K562-ABCB6 cells, flow cytometry, cherry pick 1 (AID 623955); format: functional; settings: read-out: EC50_MICROM
Chain of ATP-binding cassette sub-family B member 6 (Q9NP58 whole entry): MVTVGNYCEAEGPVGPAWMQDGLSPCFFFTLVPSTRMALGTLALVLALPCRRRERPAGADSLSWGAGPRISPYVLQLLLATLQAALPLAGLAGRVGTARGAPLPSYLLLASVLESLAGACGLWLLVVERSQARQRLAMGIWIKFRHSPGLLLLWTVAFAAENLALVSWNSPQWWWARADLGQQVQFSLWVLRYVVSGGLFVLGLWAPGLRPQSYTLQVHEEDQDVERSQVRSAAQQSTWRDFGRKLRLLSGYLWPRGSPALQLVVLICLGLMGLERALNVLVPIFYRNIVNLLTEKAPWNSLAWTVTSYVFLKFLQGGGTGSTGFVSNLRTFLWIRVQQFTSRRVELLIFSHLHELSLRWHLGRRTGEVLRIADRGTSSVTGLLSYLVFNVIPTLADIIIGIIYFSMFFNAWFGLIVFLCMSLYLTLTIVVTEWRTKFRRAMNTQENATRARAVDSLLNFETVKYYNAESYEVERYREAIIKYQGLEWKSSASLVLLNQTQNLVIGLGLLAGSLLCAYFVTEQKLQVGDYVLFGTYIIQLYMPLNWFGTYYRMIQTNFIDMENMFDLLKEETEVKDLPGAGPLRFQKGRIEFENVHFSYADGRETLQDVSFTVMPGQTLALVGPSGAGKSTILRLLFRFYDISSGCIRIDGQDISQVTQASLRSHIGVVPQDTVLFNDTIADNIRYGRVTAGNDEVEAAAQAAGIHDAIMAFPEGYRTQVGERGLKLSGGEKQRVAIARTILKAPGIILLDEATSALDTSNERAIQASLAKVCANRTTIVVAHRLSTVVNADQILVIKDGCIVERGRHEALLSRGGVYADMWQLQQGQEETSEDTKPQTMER

[21] = Shn3 3'UTR reporter inhibitors, dose response, cell-based, Clone20 osteoblasts, firefly luciferase, cherry-picked (AID 624132); format: functional;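 also: firefly luciferase luminescence from reporter carrying the Shn3 3'UTR in osteoblasts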
[22] = target: T4, Microphthalmia-associated transcription factor (Homo sapiens, UniProt O75030); assay: TRPM1 promoter luciferase signal decrease, dose response, MITF inhibitor project, cell-based, SK-MEL-5, cherry-picked, set 3 (AID 493073); format: functional
T4 sequence (O75030 whole entry): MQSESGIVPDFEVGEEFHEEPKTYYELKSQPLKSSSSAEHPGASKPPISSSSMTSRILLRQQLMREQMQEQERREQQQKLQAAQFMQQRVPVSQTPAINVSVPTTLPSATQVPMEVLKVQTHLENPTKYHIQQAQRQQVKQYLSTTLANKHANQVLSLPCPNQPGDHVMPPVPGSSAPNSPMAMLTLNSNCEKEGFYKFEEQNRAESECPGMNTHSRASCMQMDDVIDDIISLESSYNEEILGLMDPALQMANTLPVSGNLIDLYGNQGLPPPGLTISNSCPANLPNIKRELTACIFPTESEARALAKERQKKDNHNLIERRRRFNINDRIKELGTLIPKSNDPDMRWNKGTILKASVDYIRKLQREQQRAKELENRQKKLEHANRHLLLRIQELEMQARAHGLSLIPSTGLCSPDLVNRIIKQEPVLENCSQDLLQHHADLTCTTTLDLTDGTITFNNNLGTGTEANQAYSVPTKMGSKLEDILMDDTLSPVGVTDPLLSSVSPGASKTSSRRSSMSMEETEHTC

[23] = target: DNA dC->dU-editing enzyme APOBEC-3G (Homo sapiens, UniProt Q9HC16); format: functional;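 also: Dose-response counterscreen measuring inhibition of APOBEC3G DNA deaminase activity, run while confirming APOBEC3A inhibitors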
[24] = target: DNA dC->dU-editing enzyme APOBEC-3A (Homo sapiens, UniProt P31941); assay: Dose Response confirmation of small molecule APOBEC3A DNA Deaminase Inhibitors via a fluorescence-based single-stranded DNA deaminase assay. [Related pubchem assays (depositor defined):AID493011, AID493024]; format: functional
Chain of DNA dC->dU-editing enzyme APOBEC-3A (P31941 whole entry): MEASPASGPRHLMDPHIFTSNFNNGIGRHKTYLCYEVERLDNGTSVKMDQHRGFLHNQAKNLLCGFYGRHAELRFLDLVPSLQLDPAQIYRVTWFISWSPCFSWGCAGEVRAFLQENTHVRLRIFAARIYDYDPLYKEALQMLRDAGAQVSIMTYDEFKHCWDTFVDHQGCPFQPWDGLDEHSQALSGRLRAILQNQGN

[25] = target: T2, High affinity choline transporter 1; assay: CHT activators, dose response, cell-based, 10-point CRC, membrane potential dye (AID 602376); format: functional
[26] = target: Matrix metalloproteinase-14 (Homo sapiens, UniProt P50281); assay: Dose Response confirmation of uHTS hits for a small molecule inhibitors of MT1-MMP activation in a fluorescence assay set 1.; format: functional
[27] = THP-1 cell cytotoxicity, dose response, cytotoxicity control for non-replicating M. tuberculosis project (AID 489025); format: functional
[28] = target: Nonstructural protein 1 (Influenza A virus, UniProt Q194T2); format: functional, Influenza A virus (A/California/07/2009(H1N1))
Chain of Nonstructural protein 1 (Q194T2 whole entry): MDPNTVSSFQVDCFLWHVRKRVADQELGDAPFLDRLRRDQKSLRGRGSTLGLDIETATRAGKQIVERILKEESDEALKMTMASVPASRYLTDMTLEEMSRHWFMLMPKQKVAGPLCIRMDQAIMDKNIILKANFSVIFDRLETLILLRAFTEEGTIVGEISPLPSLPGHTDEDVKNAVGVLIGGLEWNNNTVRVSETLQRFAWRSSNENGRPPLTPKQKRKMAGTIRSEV

[29] = cells; format: functional

Cn1c(-c2ccc3c(c2)OCO3)cnc1N
active: AC50 [1] 83.7 µM

COc1ccc2sc(/C=C/c3ccccc3O)[n+](C)c2c1
active: IC50 [2] 14.3 µM | IC50 [3] 10.2 µM

COc1ccc(C(=O)c2c3ccc(C(F)(F)F)cc3[n+]([O-])n2CCCN)cc1
active: IC50 [4] 4.47 µM | IC50 [5] 9.03 µM

CC(=O)c1c(C)n(-c2ccc(C)cc2C)c2ccc(O)cc12
inactive: IC50 [6] > 79 µM

O=C(Nc1ccc(F)cc1)c1nc(S(=O)(=O)Cc2ccccc2)ncc1Cl
active: AC50 [7] 1.63 µM | AC50 [8] > 11 µM | IC50 [9] 11.8 µM | IC50 [10] 5.43 µM | AC50 [11] > 11 µM | IC50 [12] 8.67 µM | AC50 [13] 10.4 µM | AC50 [14] 22.6 µM | IC50 [16] 2.79 µM | IC50 [17] 13.4 µM | AC50 [18] 6.61 µM | AC50 [19] 3.46 µM | EC50 [20] 62.8 µM | AC50 [21] 3.38 µM | AC50 [22] 9.45 µM
inactive: EC50 [15] > 40 µM

CCN1C(NCCc2cccnc2)=N[C@@H](c2ccccc2)[C@H](C(=O)OC)[C@H]1C
active: IC50 [23] 6.37 µM | IC50 [24] 4.22 µM | EC50 [25] 14.6 µM

COc1ccc(Nc2ccccc2N)cc1
active: IC50 [26] 8.32 µM | CC50 [27] 38.1 µM | IC50 [28] 42.8 µM | IC50 [29] 1.41 µM
